The values below come from ChEMBL document CHEMBL6092212, “Discovery of novel substituted (Z)-N'-hydroxy-3-(3-phenylureido)benzimidamide derivatives as multifunctional molecules targeting pathological hallmarks of Alzheimer's disease” (Eur J Med Chem, 2024).

The term IC50 denotes the concentration that inhibits the measured activity by half.

The test system of assay [1] is Mus musculus. Nature of the assay: Protection against scopolamine-associated dementia in Swiss albino mouse model assessed as increase in latency period at 1.5 mg/kg, ip measured after 14 days by Passive avoidance task method. It counts as functional, organism-based. As to conditions: time 14.0 day.
A short description of assay [2]: Antioxidant activity assessed as DPPH radical scavenging activity at 20 to 200 uM incubated for 30 mins by absorbance based analysis relative to control. It counts as functional. As to conditions: dose 20-200 µM.
Assay [3] has as its system Mus musculus. Nature of the assay: Reversal of scopolamine-induced cognitive deficit Swiss albino mouse model assessed as decrease in escape latency at 1.5 mg/kg, ip measured for 5 days by Morris water maze test. It counts as functional, organism-based. As to conditions: time 5.0 day.
Assay [4] has as its system Mus musculus. Nature of the assay: Reversal of scopolamine-induced cognitive deficit Swiss albino mouse model assessed as increase in time in platform quadrant at 1.5 mg/kg, ip measured after 5 days by Morris water maze test. The class given is functional, organism-based. As to conditions: time 5.0 day.
Assay [5] deals with Mus musculus. Briefly: Neuroprotective activity against scopolamine-induced cognitive deficit Swiss albino mouse model assessed as increase in TRKB mRNA level at 1.5 mg/kg, ip measured after 14 days by RT-PCR analysis. It counts as functional, organism-based. As to conditions: time 14.0 day.
In assay [6] the test system is Mus musculus. Nature of the assay: Neuroprotective activity against scopolamine-induced cognitive deficit Swiss albino mouse model assessed as increase in BDNF mRNA level at 1.5 mg/kg, ip measured after 14 days by RT-PCR analysis. It counts as functional, organism-based. Conditions: time 14.0 day.
For another assay, the target named is Cholinesterase (Homo sapiens, UniProt P06276). Briefly: Inhibition of BChE (unknown origin).
A further assay addresses Acetylcholinesterase (Homo sapiens, UniProt P22303). Briefly: Inhibition of AChE (unknown origin).

SMILES strings stand for the structures. The source made the active and inactive calls. No cut-off for these calls is given here.

Cholinesterase, sequence (P06276 whole entry): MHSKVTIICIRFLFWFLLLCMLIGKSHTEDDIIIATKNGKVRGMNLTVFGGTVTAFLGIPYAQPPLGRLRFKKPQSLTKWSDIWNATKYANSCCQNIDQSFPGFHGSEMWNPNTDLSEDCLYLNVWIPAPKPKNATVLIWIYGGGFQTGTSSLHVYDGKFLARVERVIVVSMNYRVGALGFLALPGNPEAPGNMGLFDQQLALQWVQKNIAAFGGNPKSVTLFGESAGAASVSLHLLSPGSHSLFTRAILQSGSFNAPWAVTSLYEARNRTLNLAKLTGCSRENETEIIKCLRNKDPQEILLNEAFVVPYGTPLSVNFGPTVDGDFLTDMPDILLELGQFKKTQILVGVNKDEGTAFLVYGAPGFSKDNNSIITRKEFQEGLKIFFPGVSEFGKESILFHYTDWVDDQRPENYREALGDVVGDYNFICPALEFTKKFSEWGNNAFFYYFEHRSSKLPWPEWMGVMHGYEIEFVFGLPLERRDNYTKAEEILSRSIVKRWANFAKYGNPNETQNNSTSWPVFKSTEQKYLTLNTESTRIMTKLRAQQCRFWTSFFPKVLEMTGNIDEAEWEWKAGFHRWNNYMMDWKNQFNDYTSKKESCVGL
Acetylcholinesterase, sequence (P22303 whole entry): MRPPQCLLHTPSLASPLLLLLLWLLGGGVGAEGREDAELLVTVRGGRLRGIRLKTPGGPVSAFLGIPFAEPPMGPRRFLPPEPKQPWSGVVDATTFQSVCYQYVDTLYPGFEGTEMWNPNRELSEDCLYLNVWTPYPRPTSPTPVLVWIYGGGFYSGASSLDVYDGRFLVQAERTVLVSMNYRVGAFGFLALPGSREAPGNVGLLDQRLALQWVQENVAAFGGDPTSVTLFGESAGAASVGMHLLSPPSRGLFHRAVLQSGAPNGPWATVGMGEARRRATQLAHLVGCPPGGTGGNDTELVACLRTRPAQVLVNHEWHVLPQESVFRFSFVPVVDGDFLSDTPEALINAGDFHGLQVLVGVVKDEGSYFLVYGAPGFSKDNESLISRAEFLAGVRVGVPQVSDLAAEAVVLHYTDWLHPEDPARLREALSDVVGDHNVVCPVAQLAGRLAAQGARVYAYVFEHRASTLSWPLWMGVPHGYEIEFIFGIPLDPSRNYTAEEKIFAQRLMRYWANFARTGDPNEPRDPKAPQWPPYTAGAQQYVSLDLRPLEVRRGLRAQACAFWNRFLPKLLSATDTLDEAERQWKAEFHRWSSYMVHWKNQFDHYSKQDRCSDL

`CCN(C)C(=O)Oc1cccc([C@H](C)N(C)C)c1`: the result with Mus musculus [1], in the assay with Mus musculus [3], with Mus musculus [4], in the assay on Mus musculus [5] and with Mus musculus [6] was Active. Further, the Activity in assay [2] is 4.73%.
With `COc1cc(/C=C/C(=O)NCC(=O)NCCc2c[nH]c3ccccc23)ccc1O`, the 50% inhibitory concentration (IC50) at Cholinesterase is 1230 nM; against Acetylcholinesterase, 960 nM.
